According to PubChem BioAssay (NCI):
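48-hour exposure; five concentrations; linearly interpolated endpoints. GI50 is the concentration that inhibits growth by half. TGI is the concentration that stops growth completely.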

Legend:
Test in all cases: growth of human tumour cells (NCI), 48 h
EKVX NSCLC = tested on: EKVX NSCLC
SF-539 CNS = tested on: SF-539 CNS
786-0 renal = tested on: 786-0 renal
NCI-H23 lung = tested on: NCI-H23 lung
OVCAR-4 ovarian = tested on: OVCAR-4 ovarian
ACHN renal = tested on: ACHN renal
KM12 colon = tested on: KM12 colon
A498 renal = tested on: A498 renal
LOX IMVI melanoma = tested on: LOX IMVI melanoma
MDA-MB-435 = tested on: MDA-MB-435
HCT-116 colon = tested on: HCT-116 colon
T-47D breast = tested on: T-47D breast
HT29 colon = tested on: HT29 colon
HL-60(TB) leukemia = tested on: HL-60(TB) leukemia
U251 CNS = tested on: U251 CNS
UACC-257 melanoma = tested on: UACC-257 melanoma
SK-OV-3 ovarian = tested on: SK-OV-3 ovarian
SF-268 CNS = tested on: SF-268 CNS
SK-MEL-5 melanoma = tested on: SK-MEL-5 melanoma
NCI-H522 lung = tested on: NCI-H522 lung
MCF7 breast = tested on: MCF7 breast
OVCAR-5 ovarian = tested on: OVCAR-5 ovarian
SW-620 colon = tested on: SW-620 colon
NCI/ADR-RES ovarian = tested on: NCI/ADR-RES ovarian
MALME-3M melanoma = tested on: MALME-3M melanoma
SN12C renal = tested on: SN12C renal
TK-10 renal = tested on: TK-10 renal
COLO 205 colon = tested on: COLO 205 colon
DU-145 prostate = tested on: DU-145 prostate
IGROV1 ovarian = tested on: IGROV1 ovarian
SNB-75 CNS = tested on: SNB-75 CNS
HOP-92 NSCLC = tested on: HOP-92 NSCLC
SK-MEL-28 melanoma = tested on: SK-MEL-28 melanoma
RXF 393 renal = tested on: RXF 393 renal
CAKI-1 renal = tested on: CAKI-1 renal
M14 melanoma = tested on: M14 melanoma
OVCAR-8 ovarian = tested on: OVCAR-8 ovarian
K-562 leukemia = tested on: K-562 leukemia
HOP-62 NSCLC = tested on: HOP-62 NSCLC
UO-31 renal = tested on: UO-31 renal
NCI-H226 lung = tested on: NCI-H226 lung
MOLT-4 leukemia = tested on: MOLT-4 leukemia
PC-3 prostate = tested on: PC-3 prostate
UACC-62 melanoma = tested on: UACC-62 melanoma
CCRF-CEM leukemia = tested on: CCRF-CEM leukemia
SF-295 CNS = tested on: SF-295 CNS
MDA-MB-231 breast = tested on: MDA-MB-231 breast
HS 578T breast = tested on: HS 578T breast
HCC-2998 colon = tested on: HCC-2998 colon
A549 NSCLC = tested on: A549 NSCLC
SNB-19 CNS = tested on: SNB-19 CNS
OVCAR-3 ovarian = tested on: OVCAR-3 ovarian
RPMI-8226 leukemia = tested on: RPMI-8226 leukemia
SR leukemia = tested on: SR leukemia
NCI-H460 lung = tested on: NCI-H460 lung
BT-549 breast = tested on: BT-549 breast
HCT-15 colon = tested on: HCT-15 colon

COc1ccc([C@@H]2[C@@H](O)C(=O)N2c2cc(OC)c(OC)c(OC)c2)cc1Cl
TGI (EKVX NSCLC): > 100000 nM
GI50 (SF-539 CNS): < 10 nM
TGI (SF-539 CNS): 49.1 nM
GI50 (786-0 renal): < 19.8 nM
TGI (786-0 renal): > 100000 nM
GI50 (NCI-H23 lung): 35.3 nM
TGI (NCI-H23 lung): > 100000 nM
GI50 (OVCAR-4 ovarian): 2160 nM
TGI (OVCAR-4 ovarian): > 100000 nM
GI50 (ACHN renal): < 14.4 nM
TGI (ACHN renal): > 100000 nM
GI50 (KM12 colon): < 16.3 nM
TGI (KM12 colon): > 100000 nM
GI50 (A498 renal): 21700 nM
TGI (A498 renal): > 100000 nM
GI50 (LOX IMVI melanoma): < 11.4 nM
TGI (LOX IMVI melanoma): > 100000 nM
GI50 (MDA-MB-435): < 10 nM
TGI (MDA-MB-435): 24.8 nM
GI50 (HCT-116 colon): < 14.9 nM
TGI (HCT-116 colon): > 100000 nM
GI50 (T-47D breast): 33100 nM
TGI (T-47D breast): > 100000 nM
GI50 (HT29 colon): < 10 nM
GI50 (HL-60(TB) leukemia): < 15.9 nM
TGI (HL-60(TB) leukemia): 1830 nM
GI50 (U251 CNS): < 17.8 nM
TGI (U251 CNS): > 100000 nM
GI50 (UACC-257 melanoma): > 100000 nM
TGI (UACC-257 melanoma): > 100000 nM
GI50 (SK-OV-3 ovarian): < 22.9 nM
TGI (SK-OV-3 ovarian): > 51300 nM
GI50 (SF-268 CNS): < 21.6 nM
TGI (SF-268 CNS): > 100000 nM
GI50 (SK-MEL-5 melanoma): < 14.9 nM
TGI (SK-MEL-5 melanoma): 38 nM
GI50 (NCI-H522 lung): < 10 nM
TGI (NCI-H522 lung): < 17.2 nM
GI50 (MCF7 breast): < 10 nM
TGI (MCF7 breast): > 92000 nM
GI50 (OVCAR-5 ovarian): < 18.6 nM
TGI (OVCAR-5 ovarian): > 100000 nM
GI50 (SW-620 colon): < 19.2 nM
TGI (SW-620 colon): > 100000 nM
GI50 (NCI/ADR-RES ovarian): < 15.2 nM
TGI (NCI/ADR-RES ovarian): 95.9 nM
GI50 (MALME-3M melanoma): 219 nM
TGI (MALME-3M melanoma): > 100000 nM
GI50 (SN12C renal): < 19.3 nM
TGI (SN12C renal): > 100000 nM
GI50 (TK-10 renal): > 54900 nM
TGI (TK-10 renal): > 100000 nM
GI50 (COLO 205 colon): < 15.6 nM
TGI (COLO 205 colon): < 23.9 nM
GI50 (DU-145 prostate): < 19 nM
TGI (DU-145 prostate): > 100000 nM
GI50 (IGROV1 ovarian): < 20.3 nM
TGI (IGROV1 ovarian): > 100000 nM
GI50 (SNB-75 CNS): 26.2 nM
TGI (SNB-75 CNS): > 100000 nM
GI50 (HOP-92 NSCLC): 16200 nM
TGI (HOP-92 NSCLC): > 100000 nM
GI50 (SK-MEL-28 melanoma): 146 nM
TGI (SK-MEL-28 melanoma): > 100000 nM
GI50 (RXF 393 renal): 43.1 nM
TGI (RXF 393 renal): > 100000 nM
GI50 (CAKI-1 renal): < 12.2 nM
GI50 (M14 melanoma): < 17.1 nM
TGI (M14 melanoma): > 100000 nM
GI50 (OVCAR-8 ovarian): < 17.9 nM
GI50 (K-562 leukemia): < 14.3 nM
TGI (K-562 leukemia): > 100000 nM
GI50 (HOP-62 NSCLC): < 20.1 nM
TGI (HOP-62 NSCLC): > 100000 nM
GI50 (UO-31 renal): < 23.6 nM
TGI (UO-31 renal): > 100000 nM
GI50 (NCI-H226 lung): < 10 nM
TGI (NCI-H226 lung): 75.3 nM
GI50 (MOLT-4 leukemia): < 20 nM
TGI (MOLT-4 leukemia): > 100000 nM
GI50 (PC-3 prostate): < 19.7 nM
TGI (PC-3 prostate): > 100000 nM
GI50 (UACC-62 melanoma): < 10 nM
TGI (UACC-62 melanoma): > 100000 nM
GI50 (CCRF-CEM leukemia): < 18.5 nM
TGI (CCRF-CEM leukemia): > 100000 nM
GI50 (SF-295 CNS): < 11.1 nM
TGI (SF-295 CNS): > 100000 nM
GI50 (MDA-MB-231 breast): < 18.7 nM
TGI (MDA-MB-231 breast): > 100000 nM
GI50 (HS 578T breast): < 22.6 nM
TGI (HS 578T breast): > 100000 nM
GI50 (HCC-2998 colon): < 19.4 nM
GI50 (A549 NSCLC): < 19.3 nM
TGI (A549 NSCLC): > 100000 nM
GI50 (SNB-19 CNS): < 24.1 nM
TGI (SNB-19 CNS): > 100000 nM
GI50 (OVCAR-3 ovarian): < 10 nM
TGI (OVCAR-3 ovarian): 171 nM
GI50 (RPMI-8226 leukemia): < 21.7 nM
GI50 (SR leukemia): < 10.7 nM
TGI (SR leukemia): > 100000 nM
GI50 (NCI-H460 lung): < 18.9 nM
GI50 (BT-549 breast): < 14.4 nM
TGI (BT-549 breast): 66.8 nM
GI50 (HCT-15 colon): < 16.9 nM
TGI (HCT-15 colon): > 100000 nM

CCCCOc1ccc(S(=O)(=O)N2CCN(c3nccc(N4CCOCC4)n3)CC2)cc1
GI50 (SF-539 CNS): 4090 nM
TGI (SF-539 CNS): > 100000 nM
GI50 (786-0 renal): 2700 nM
TGI (786-0 renal): > 100000 nM
GI50 (OVCAR-4 ovarian): 4730 nM
TGI (OVCAR-4 ovarian): > 100000 nM
GI50 (ACHN renal): 1920 nM
TGI (ACHN renal): > 100000 nM
GI50 (KM12 colon): 1570 nM
TGI (KM12 colon): > 100000 nM
GI50 (MDA-MB-435): 1500 nM
TGI (MDA-MB-435): > 100000 nM
GI50 (HCT-116 colon): 484 nM
TGI (HCT-116 colon): > 100000 nM
GI50 (HT29 colon): 538 nM
TGI (HT29 colon): > 100000 nM
GI50 (HL-60(TB) leukemia): 476 nM
TGI (HL-60(TB) leukemia): > 100000 nM
GI50 (SK-OV-3 ovarian): 2780 nM
TGI (SK-OV-3 ovarian): > 100000 nM
GI50 (NCI-H522 lung): > 100000 nM
TGI (NCI-H522 lung): > 100000 nM
GI50 (MCF7 breast): > 100000 nM
TGI (MCF7 breast): > 100000 nM
GI50 (OVCAR-5 ovarian): > 100000 nM
TGI (OVCAR-5 ovarian): > 100000 nM
GI50 (NCI/ADR-RES ovarian): 2020 nM
TGI (NCI/ADR-RES ovarian): > 100000 nM
GI50 (DU-145 prostate): 524 nM
TGI (DU-145 prostate): > 100000 nM
GI50 (SNB-75 CNS): 1770 nM
TGI (SNB-75 CNS): 4390 nM
GI50 (HOP-92 NSCLC): 1800 nM
TGI (HOP-92 NSCLC): 6910 nM
GI50 (CAKI-1 renal): 1760 nM
TGI (CAKI-1 renal): > 100000 nM
GI50 (M14 melanoma): 2710 nM
TGI (M14 melanoma): > 100000 nM
GI50 (OVCAR-8 ovarian): 4040 nM
TGI (OVCAR-8 ovarian): > 100000 nM
GI50 (K-562 leukemia): 3300 nM
TGI (K-562 leukemia): > 100000 nM
GI50 (HOP-62 NSCLC): 16300 nM
TGI (HOP-62 NSCLC): > 100000 nM
GI50 (MOLT-4 leukemia): 1400 nM
TGI (MOLT-4 leukemia): > 100000 nM
GI50 (PC-3 prostate): 3150 nM
TGI (PC-3 prostate): > 100000 nM
GI50 (CCRF-CEM leukemia): 3440 nM
TGI (CCRF-CEM leukemia): > 100000 nM
GI50 (HS 578T breast): 3020 nM
TGI (HS 578T breast): > 100000 nM
GI50 (HCC-2998 colon): 1840 nM
TGI (HCC-2998 colon): > 100000 nM
GI50 (A549 NSCLC): 654 nM
TGI (A549 NSCLC): > 100000 nM
GI50 (SNB-19 CNS): 6650 nM
TGI (SNB-19 CNS): > 100000 nM
GI50 (RPMI-8226 leukemia): 422 nM
TGI (RPMI-8226 leukemia): 5590 nM
GI50 (SR leukemia): 2770 nM
TGI (SR leukemia): > 100000 nM
GI50 (NCI-H460 lung): 481 nM
TGI (NCI-H460 lung): > 100000 nM
GI50 (BT-549 breast): 2450 nM
TGI (BT-549 breast): > 100000 nM
GI50 (HCT-15 colon): 1710 nM
TGI (HCT-15 colon): > 100000 nM
